Data as given in patent US20260234115A1, “LIPID COMPOUNDS, COMPOSITIONS, AND USES THEREOF” (Liberate Bio, Inc., priority 2023, published 2026).
Marks after values point to notes of the source that are not given here.

Tests used:
[1] = Dynamic light scattering: LNP particle size and PDI; assay type: physicochemical; details: for PDI N/P:6 / Size (nm) N/P:6: LNP
Experimental: (§1) Lipids and active ingredients (e.g., RNA, DNA, etc.) were assembled into LNPs using microfluidic mixing. An ethanol phase was prepared by solubilizing ionizable lipids (i.e., lipid compounds), phospholipids (e.g., DSPC), cholesterol, and PEG lipids in ethanol, at predetermined mol % ratios given in Table 2. An aqueous phase was prepared by diluting a nucleic acid cargo (e.g., firefly luciferase mRNA) in an acidified buffer (pH 4.0 citrate buffer, 50 mM). A chip with microfluidic mixing architecture (e.g., toroidal mixer) was used to mix the two phases at predetermined flow rate ratios (e.g., 9 ml/min for the aqueous phase and 3 ml/min for the ethanol phase). Resulting LNPs comprising the lipids and encapsulating the nucleic acid cargo were dialyzed against PBS pH 7.4 for 2 hours at room temperature in a 20 kDa MWCO dialysis membrane. Then, PBS was refreshed to continue dialysis overnight at 2-8 TC. Upon completion of the buffer exchange, LNPs were optionally concentrated using a ultracentrifugal unit with a 10-100 kDa MWCO membrane.
d. Dynamic Light Scattering
LNPs were diluted with PBS pH 7.4 to predetermined dilution ranges based on the process step and LNP concentration. Following mixing, the particle size and PDI were measured by a dynamic light scattering instrument.

[2] = Plate-based fluorescence (RiboGreen) assay: nucleic acid cargo content and encapsulation efficiency of LNPs; assay type: physicochemical; details: for EE (%) N/P:6: LNP
Experimental: as §1
c. Plate-Based Fluorescence (RiboGreen) Assay
Nucleic acid cargos in the LNPs were quantified by RiboGreen assay, against a nucleic acid standard curve. LNPs encapsulating nucleic acid cargo were mixed with 1× Tris-EDTA (TE) and 2% triton in TE, separately, to achieve dilutions required by the assay. Then, the samples were heated at 30° C. and vortexed at 300 rpm. Samples were plated into 96-well plates and RiboGreen reagent was added into each well. Following incubation in the dark, fluorescence was measured from the wells, and plotted against the standard curve. Nucleic acid concentration obtained from the Triton-treated samples were used for total cargo concentration quantification. Only TE diluted sample fluorescence values were used to determine the non-encapsulated (free) cargo, and their ratio was used to determine the encapsulation efficiency (EE %).

[3] = tested on: mouse organs; assay: In vivo activity screening in mice: organ mean total flux (p/s) of luciferase activity after injection of F2 LNP pools (Table 6, FIG. 7A-7C); details: Mouse 1, dose 0.3 mg/kg, luciferase mRNA
In short: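 Luciferase output per organ is reported as mean total flux (p/s) from IVIS regions of interest. Organs were collected from perfused C57BL/6J mice and imaged 10-15 min after s.c. D-luciferin, 4-6 h after i.v. dosing. Dosing was 0.25-3 mg/kg luciferase mRNA in F2 LNP pools.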

[4] = LNP compositions for in vivo mouse study, four formulations (F1-F4) pooled, or pools of four compounds

Particle Size (nm) ([1]; LNP compositions for in vivo mouse study, four formulations (F1-F4) of the lipid compound pooled, or pools of four compounds (sixteen compositions)): 89.1 nm | PDI [1, 4]: 0.08 | PDI N/P:6 ([1]; Formulation F1, N/P 6): 0.09 | Size (nm) N/P:6 ([1]; Formulation F1, N/P 6): 74 ± 1 nm | PDI N/P:6 ([1]; Formulation F2, N/P 6): 0.01 | Size (nm) N/P:6 ([1]; Formulation F2, N/P 6): 92 ± 1 nm | PDI N/P:6 ([1]; Formulation F3, N/P 6): 0.07 | Size (nm) N/P:6 ([1]; Formulation F3, N/P 6): 102 ± 1 nm | PDI N/P:6 ([1]; Formulation F4, N/P 6): 0.14 | Size (nm) N/P:6 ([1]; Formulation F4, N/P 6): 73 ± 1 nm | EE % [2, 4]: 96% | mRNA Content [2, 4]: 83 µg/mL | EE (%) N/P:6 ([2]; Formulation F1, N/P 6): 98% | EE (%) N/P:6 ([2]; Formulation F2, N/P 6): 99% | EE (%) N/P:6 ([2]; Formulation F3, N/P 6): 98% | EE (%) N/P:6 ([2]; Formulation F4, N/P 6): 98%
Structure (SMILES): CCCCCCCC/C=C\CCCCCCCC(=O)OCC(COC(=O)CCCCCCC/C=C\CCCCCCCC)(COC(=O)CCC(CCCCCC)OC(=O)NCCN1CCCC1)COC(=O)CC12CC3CC(CC(C3)C1)C2 (stereo not drawn) [Compound 3, [2-[[2-(1-adamantyl)acetyl]oxymethyl]-2-[[(Z)-octadec-9-enoyl]oxymethyl]-3-[4-(2-pyrrolidin-1ylethylcarbamoyloxy)decanoyloxy]propyl](Z)-octadec-9-enoate]
Organ Mean Total Flux Femur [3]: 1.3 p/s (×10^6) | Organ Mean Total Flux Heart [3]: 0.1 p/s (×10^6) | Organ Mean Total Flux Kidney [3]: 0.1 p/s (×10^6) | Organ Mean Total Flux Liver [3]: 29.1 p/s (×10^6) | Organ Mean Total Flux Lung [3]: 0.7 p/s (×10^6) | Organ Mean Total Flux Muscle [3]: 0.5 p/s (×10^6) | Organ Mean Total Flux Pancreas [3]: 0.2 p/s (×10^6) | Organ Mean Total Flux Spleen [3]: 1.4 p/s (×10^6)
